Test system: Human lung cancer cell line A549
Test: A549 cell proliferation suppressive test with anticancer agents in low adhesion plate (ATP, CellTiter-Glo)
Assay type: cell-based
Experimental: Deacylated gellan gum (KELCOGEL CG-LA, manufactured by Sansho Co., Ltd.) was suspended in ultra pure water (Milli-Q water) to 0.3% (w/v) or 0.75% (w/v), dissolved by stirring with heating at 90° C., and this aqueous solution was autoclave sterilized at 121° C. for 20 min. Using 0.3% solution, a medium composition was prepared by adding deacylated gellan gum (final concentration 0.015% (w/v)) to DMEM medium (manufactured by WAKO) containing 10% (v/v) fetal bovine serum. Fetal bovine serum was added at 10% (v/v) to a medium composition prepared in Example 7.
Human lung cancer cell line A549 (manufactured by DS PHARMA BIOMEDICAL) was seeded in the above-mentioned medium composition added with deacylated gellan gum (conventional method) or the medium composition of Example 7 at 14800 cells/mL, and dispensed to the wells of a 96 well flat bottom ultra-low adhesive surface microplate (Corning Incorporated manufactured by, #3474) at 135 μL per […]. As a negative control, A549 cells were suspended in the above-mentioned medium free of deacylated gellan gum and dispensed. Each plate was cultured in a static state in a CO2 incubator (37° C., 5% CO2). On day 1 of culture, medium compositions (conventional method and the production method of the present invention) containing each anticancer agent at 10-fold concentration and deacylated gellan gum (final concentration 0.015% (w/v)), and a medium composition containing each anticancer agent alone at 10-fold concentration (non-addition method), 15 μL each, was added to a final concentration of 0.001 to 30 μM, and culture was continued for 7 days. As the anticancer agent, Trametinib (manufactured by Santa Cruz, MEK inhibitor) and MK-2206 (manufactured by Santa Cruz, Akt inhibitor) were used. ATP reagent (150 μL, CellTiter-Glo™ Luminescent Cell Viability Assay, manufactured by Promega) was added to the culture media on days 5 and 8 and suspended therein, stood for about 10 min at room temperature, and the luminescence intensity (RLU value) was measured by FlexStation3 (manufactured by Molecular Devices), from which the luminescence with the medium alone was subtracted to measure the number of viable cells.

[1] = A549, day 4 of static culture, 0.001 μM, conventional method
[2] = A549, day 4 of static culture, 0.001 μM, non-addition method
[3] = A549, day 4 of static culture, 0.001 μM, production method of present invention
[4] = A549, day 4 of static culture, 0.01 μM, conventional method
[5] = A549, day 4 of static culture, 0.01 μM, non-addition method
[6] = A549, day 4 of static culture, 0.01 μM, production method of present invention
[7] = A549, day 7 of static culture, 0.001 μM, conventional method
[8] = A549, day 7 of static culture, 0.001 μM, non-addition method
[9] = A549, day 7 of static culture, 0.001 μM, production method of present invention
[10] = A549, day 7 of static culture, 0.01 μM, conventional method
[11] = A549, day 7 of static culture, 0.01 μM, non-addition method
[12] = A549, day 7 of static culture, 0.01 μM, production method of present invention
[13] = A549, day 4 of static culture, 0.03 μM, conventional method
[14] = A549, day 4 of static culture, 0.03 μM, non-addition method
[15] = A549, day 4 of static culture, 0.03 μM, production method of present invention
[16] = A549, day 7 of static culture, 0.03 μM, conventional method
[17] = A549, day 7 of static culture, 0.03 μM, non-addition method
[18] = A549, day 7 of static culture, 0.03 μM, production method of present invention

**Q.** What does the source list for `CC(=O)O[C@H]1C(=O)[C@@]2(C)[C@H]([C@H](OC(=O)c3ccccc3)[C@]3(O)C[C@H](OC(=O)[C@H](O)[C@@H](NC(=O)c4ccccc4)c4ccccc4)C(C)=C1C3(C)C)[C@]1(OC(C)=O)CO[C@@H]1C[C@@H]2O` [Paclitaxel]?
**A.** % control of RLU value (ATP measurement, luminescence intensity) [1]: 98 % Control; % control of RLU value (ATP measurement, luminescence intensity) [2]: 112 % Control; % control of RLU value (ATP measurement, luminescence intensity) [3]: 91 % Control; % control of RLU value (ATP measurement, luminescence intensity) [4]: 31 % Control; % control of RLU value (ATP measurement, luminescence intensity) [5]: 57 % Control; % control of RLU value (ATP measurement, luminescence intensity) [6]: 32 % Control; % control of RLU value (ATP measurement, luminescence intensity) [7]: 90 % Control; % control of RLU value (ATP measurement, luminescence intensity) [8]: 116 % Control; % control of RLU value (ATP measurement, luminescence intensity) [9]: 84 % Control; % control of RLU value (ATP measurement, luminescence intensity) [10]: 12 % Control; % control of RLU value (ATP measurement, luminescence intensity) [11]: 49 % Control; % control of RLU value (ATP measurement, luminescence intensity) [12]: 12 % Control

**Q.** Which results are given for `NC1(c2ccc(-c3nc4ccn5c(=O)[nH]nc5c4cc3-c3ccccc3)cc2)CCC1` [MK-2206]?
**A.** % control of RLU value (ATP measurement, luminescence intensity) [13]: 100 % Control; % control of RLU value (ATP measurement, luminescence intensity) [14]: 108 % Control; % control of RLU value (ATP measurement, luminescence intensity) [15]: 85 % Control; % control of RLU value (ATP measurement, luminescence intensity) (A549, day 4 of static culture, 0.1 μM, conventional method): 91 % Control; % control of RLU value (ATP measurement, luminescence intensity) (A549, day 4 of static culture, 0.1 μM, non-addition method): 99 % Control; % control of RLU value (ATP measurement, luminescence intensity) (A549, day 4 of static culture, 0.1 μM, production method of present invention): 74 % Control; % control of RLU value (ATP measurement, luminescence intensity) (A549, day 4 of static culture, 0.3 μM, conventional method): 71 % Control; % control of RLU value (ATP measurement, luminescence intensity) (A549, day 4 of static culture, 0.3 μM, non-addition method): 93 % Control; % control of RLU value (ATP measurement, luminescence intensity) (A549, day 4 of static culture, 0.3 μM, production method of present invention): 60 % Control; % control of RLU value (ATP measurement, luminescence intensity) (A549, day 4 of static culture, 1 μM, conventional method): 50 % Control; % control of RLU value (ATP measurement, luminescence intensity) (A549, day 4 of static culture, 1 μM, non-addition method): 78 % Control; % control of RLU value (ATP measurement, luminescence intensity) (A549, day 4 of static culture, 1 μM, production method of present invention): 43 % Control; % control of RLU value (ATP measurement, luminescence intensity) (A549, day 4 of static culture, 3 μM, conventional method): 38 % Control; % control of RLU value (ATP measurement, luminescence intensity) (A549, day 4 of static culture, 3 μM, non-addition method): 62 % Control; % control of RLU value (ATP measurement, luminescence intensity) (A549, day 4 of static culture, 3 μM, production method of present invention): 33 % Control; % control of RLU value (ATP measurement, luminescence intensity) [16]: 92 % Control; % control of RLU value (ATP measurement, luminescence intensity) [17]: 124 % Control; % control of RLU value (ATP measurement, luminescence intensity) [18]: 80 % Control; % control of RLU value (ATP measurement, luminescence intensity) (A549, day 7 of static culture, 0.1 μM, conventional method): 83 % Control; % control of RLU value (ATP measurement, luminescence intensity) (A549, day 7 of static culture, 0.1 μM, non-addition method): 101 % Control; % control of RLU value (ATP measurement, luminescence intensity) (A549, day 7 of static culture, 0.1 μM, production method of present invention): 69 % Control; % control of RLU value (ATP measurement, luminescence intensity) (A549, day 7 of static culture, 0.3 μM, conventional method): 63 % Control; % control of RLU value (ATP measurement, luminescence intensity) (A549, day 7 of static culture, 0.3 μM, non-addition method): 103 % Control; % control of RLU value (ATP measurement, luminescence intensity) (A549, day 7 of static culture, 0.3 μM, production method of present invention): 54 % Control; % control of RLU value (ATP measurement, luminescence intensity) (A549, day 7 of static culture, 1 μM, conventional method): 38 % Control; % control of RLU value (ATP measurement, luminescence intensity) (A549, day 7 of static culture, 1 μM, non-addition method): 85 % Control; % control of RLU value (ATP measurement, luminescence intensity) (A549, day 7 of static culture, 1 μM, production method of present invention): 34 % Control; % control of RLU value (ATP measurement, luminescence intensity) (A549, day 7 of static culture, 3 μM, conventional method): 26 % Control; % control of RLU value (ATP measurement, luminescence intensity) (A549, day 7 of static culture, 3 μM, non-addition method): 76 % Control; % control of RLU value (ATP measurement, luminescence intensity) (A549, day 7 of static culture, 3 μM, production method of present invention): 21 % Control; efficacy on A549 cell proliferation in the medium composition of the present invention (in words) (A549, medium composition of the present invention): strong efficacy

**Q.** How did the “% control of RLU value (ATP measurement, luminescence intensity)” value (from here on “% control of RLU value”) [1] turn out when `CC(=O)Nc1cccc(-n2c(=O)n(C3CC3)c(=O)c3c(Nc4ccc(I)cc4F)n(C)c(=O)c(C)c32)c1` [Trametinib] was run?
**A.** 85 % Control

**Q.** And the “% control of RLU value” value [2]?
**A.** 76 % Control

**Q.** What about the “% control of RLU value” value [3] of the same compound?
**A.** 82 % Control

**Q.** What about the “% control of RLU value” value (A549, day 4 of static culture, 0.003 μM, conventional method) of the same compound?
**A.** 65 % Control

**Q.** What about the “% control of RLU value” value (A549, day 4 of static culture, 0.003 μM, non-addition method) of the same compound?
**A.** 57 % Control

**Q.** And the “% control of RLU value” value (A549, day 4 of static culture, 0.003 μM, production method of present invention)?
**A.** 60 % Control

**Q.** And the “% control of RLU value” value [4]?
**A.** 61 % Control

**Q.** And the “% control of RLU value” value [5]?
**A.** 65 % Control

**Q.** What about the “% control of RLU value” value [6] of the same compound?
**A.** 57 % Control

**Q.** And the “% control of RLU value” value [13]?
**A.** 40 % Control

**Q.** What about the “% control of RLU value” value [14] of the same compound?
**A.** 46 % Control

**Q.** And the “% control of RLU value” value [15]?
**A.** 41 % Control

**Q.** What about the “% control of RLU value” value [7] of the same compound?
**A.** 81 % Control

**Q.** And the “% control of RLU value” value [8]?
**A.** 76 % Control

**Q.** And the “% control of RLU value” value [9]?
**A.** 76 % Control

**Q.** And the “% control of RLU value” value (A549, day 7 of static culture, 0.003 μM, conventional method)?
**A.** 52 % Control

**Q.** And the “% control of RLU value” value (A549, day 7 of static culture, 0.003 μM, non-addition method)?
**A.** 48 % Control

**Q.** What about the “% control of RLU value” value (A549, day 7 of static culture, 0.003 μM, production method of present invention) of the same compound?
**A.** 48 % Control

**Q.** And the “% control of RLU value” value [10]?
**A.** 48 % Control

**Q.** And the “% control of RLU value” value [11]?
**A.** 56 % Control

**Q.** What about the “% control of RLU value” value [12] of the same compound?
**A.** 45 % Control

**Q.** What about the “% control of RLU value” value [16] of the same compound?
**A.** 25 % Control

**Q.** What about the “% control of RLU value” value [17] of the same compound?
**A.** 39 % Control

**Q.** What about the “% control of RLU value” value [18] of the same compound?
**A.** 24 % Control
